Source: ChEMBL document CHEMBL1201862, “PubChem BioAssay data set” (2004)
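Each compound was tested at five concentrations against cells in 96-well plates for 48 hours. The concentration for 50% growth inhibition is given as GI50.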 Activity calls are given as the source filed them. Rule as the data show it: active = GI50 up to about 1.1 µM and inactive = higher. Starred links: 1 amine or outer side, 2 acyl side, 3 side chain; linkers in the order of their positions; H or OH if unused. Non-standard residues stand in square brackets, D forms with d. Residues, ends and D or L forms follow the SMILES beside them. ξ: configuration not given here. X24 = O=C(C(CC(O)CO)O[*:1])[*:2]; Ile(3ξ) = CCC(C)[C@H](N)C(=O)O; NMeV = CN[C@H](C(=O)O)C(C)C; NMeA = CN[C@@H](C)C(=O)O; βAla = NCCC(=O)O

What was measured:
Experiment in all cases: DTP human tumour cell line panel, 48 h
HCT-116 = test system: HCT-116
M14 = test system: M14
RXF 393 = test system: RXF 393
HL-60 = test system: HL-60
Malme-3M = test system: Malme-3M
UO-31 = test system: UO-31
IGROV-1 = test system: IGROV-1
EKVX = test system: EKVX
SN12C = test system: SN12C
SK-OV-3 = test system: SK-OV-3
OVCAR-5 = test system: OVCAR-5
MOLT-4 = test system: MOLT-4
OVCAR-4 = test system: OVCAR-4
NCI-H23 = test system: NCI-H23
A549 = test system: A549
786-0 = test system: 786-0
NCI-H226 = test system: NCI-H226
NCI-H522 = test system: NCI-H522

Measured: GI50

O=C(Cc1ccc([N+](=O)[O-])c([N+](=O)[O-])c1CC(=O)C(=O)Nc1cc(Cl)ccc1Cl)C(=O)Nc1cc(Cl)ccc1Cl
inactive: HCT-116 > 100 µM | M14 > 100 µM | RXF 393 30.8 µM | HL-60 > 100 µM | Malme-3M > 100 µM | UO-31 > 100 µM | IGROV-1 > 100 µM | EKVX > 100 µM | SN12C 59.8 µM | SK-OV-3 > 100 µM | OVCAR-5 > 100 µM | MOLT-4 30 µM | OVCAR-4 > 100 µM | NCI-H23 > 100 µM | A549 > 100 µM | 786-0 > 100 µM | NCI-H226 82.2 µM

O=C1NC2C=CN(Cc3ccccc3)C=C2C(=O)N2CCCC12 (stereo not drawn)
inactive: HCT-116 > 100 µM | M14 > 100 µM | RXF 393 > 100 µM | HL-60 > 100 µM | Malme-3M > 100 µM | UO-31 > 100 µM | NCI-H522 > 100 µM | IGROV-1 > 100 µM | EKVX > 100 µM | SN12C > 100 µM | SK-OV-3 > 100 µM | OVCAR-5 > 100 µM | MOLT-4 > 100 µM | OVCAR-4 > 100 µM | NCI-H23 > 100 µM | A549 > 100 µM | 786-0 > 100 µM | NCI-H226 > 100 µM

Cc1ccc(NC(=O)/C(C#N)=C/c2ccccc2)c(C)c1
inactive: HCT-116 > 100 µM | M14 > 100 µM | RXF 393 > 100 µM | HL-60 > 100 µM | Malme-3M > 100 µM | UO-31 > 100 µM | NCI-H522 > 100 µM | IGROV-1 > 100 µM | EKVX > 100 µM | SN12C > 100 µM | SK-OV-3 > 100 µM | OVCAR-5 > 100 µM | MOLT-4 > 100 µM | OVCAR-4 > 100 µM | NCI-H23 > 100 µM | A549 > 100 µM | 786-0 > 100 µM | NCI-H226 > 100 µM

CCC(C)[C@@H]1NC(=O)[C@@H]2CCCN2C(=O)C(CC(O)CO)OC(=O)CCNC(=O)[C@H](C)N(C)C(=O)[C@H](C(C)C)N(C)C1=O (stereo partly drawn) (cyclo([Ile(3ξ)][NMeV][NMeA][βAla][X24]P))
inactive: HCT-116 > 100 µM | M14 > 100 µM | RXF 393 > 100 µM | HL-60 > 100 µM | Malme-3M > 100 µM | UO-31 > 100 µM | IGROV-1 > 100 µM | SN12C > 100 µM | SK-OV-3 > 100 µM | OVCAR-5 > 100 µM | MOLT-4 43.1 µM | OVCAR-4 > 100 µM | NCI-H23 > 100 µM | A549 > 100 µM | 786-0 > 100 µM | NCI-H226 > 100 µM

O=C(O)c1c2c(cc3c(=O)cc(-c4ccccc4)oc13)CCCC2
inactive: HCT-116 > 100 µM | M14 > 100 µM | Malme-3M > 100 µM | UO-31 > 100 µM | NCI-H522 71.4 µM | IGROV-1 > 100 µM | EKVX > 100 µM | SN12C > 100 µM | SK-OV-3 > 100 µM | OVCAR-5 > 100 µM | MOLT-4 > 100 µM | OVCAR-4 > 100 µM | NCI-H23 > 100 µM | A549 > 100 µM | 786-0 > 100 µM

O=C(/C=C\c1cccc2ccccc12)c1cccs1
inactive: HCT-116 3.03 µM | M14 15.1 µM | HL-60 3.25 µM | Malme-3M 12.5 µM | UO-31 12.9 µM | NCI-H522 2.52 µM | IGROV-1 10.3 µM | EKVX 12.8 µM | SN12C 16.8 µM | SK-OV-3 15.5 µM | OVCAR-5 18.7 µM | MOLT-4 5.06 µM | OVCAR-4 17.7 µM | NCI-H23 16.7 µM | A549 16.8 µM | 786-0 10.7 µM

COc1cc2c3c(c1OC)-c1ccccc1C(C(O)c1ccccc1)C3N(C)CC2 (stereo not drawn)
inactive: HCT-116 19.6 µM | M14 18.1 µM | RXF 393 12.4 µM | HL-60 20 µM | Malme-3M 19.6 µM | UO-31 19.1 µM | NCI-H522 18.2 µM | IGROV-1 38.8 µM | EKVX 90.4 µM | SN12C 32.6 µM | SK-OV-3 37.3 µM | OVCAR-5 > 100 µM | MOLT-4 24.3 µM | NCI-H23 85.5 µM | A549 39.5 µM | 786-0 30.7 µM | NCI-H226 31 µM

O=C(O)COc1ccc(O)c2c1C(=O)CCCC2=O
inactive: HCT-116 > 100 µM | M14 > 100 µM | HL-60 > 100 µM | Malme-3M > 100 µM | UO-31 > 100 µM | NCI-H522 > 100 µM | IGROV-1 > 100 µM | EKVX > 100 µM | SN12C > 100 µM | SK-OV-3 > 100 µM | OVCAR-5 > 100 µM | MOLT-4 > 100 µM | OVCAR-4 > 100 µM | NCI-H23 > 100 µM | A549 > 100 µM | 786-0 > 100 µM
